Test system: granulomatous rosacea
Assay: Case reports: treatment of patients with granulomatous rosacea
Assay type: in vivo, human
Conditions: for clinical response of granulomatous rosacea at follow-up: two months later
Method: A patient presented with severe inflammatory diffuse facial granulomatous rosacea. The condition had been present for 6 years.
They were started on oral azithromycin 500 mg daily dose together with an estrogenic hormone, norgestimate/ethinyl estradiol (ORTHO TRI-CYCLEN®, Ortho-McNeil Pharmaceutical, Raritan, N.J.). […] Treatment was continued with a follow-up examination expected in another 6 to 8 weeks.
A patient presented with complaints of a “facial rash”. […] They were started on oral cephalexin. […] Treatment with dicloxicillin was initiated.
Oral azithromycin at a dosage of 500 mg daily was started, together with daily topical application of a sodium sulfacetamide 10% with sulfur 5% cream and a metronidazole cream.
A person presented with a facial rash.
Treatment was initiated with a variety of topical medications, including metronidazole gel, Elidel® (pimecrolimus, Novartis Pharmaceuticals Corp., New York, N.Y.), 2.4% hydrocortisone, and desonide cream.
The next therapy tried was oral doxycycline 100 mg twice daily. […] The patient was then started on Accutane® (Hoffman-LaRoche Inc., Nutley, N.J.) at an initial dosage of 20 mg per day, which was subsequently raised to 40 mg per day and then to 60 mg per day.
Treatment was subsequently initiated with azithromycin as the sole therapy, administered orally at a dosage of 250 mg daily for three weeks.

CC1=C(C(=O)O)N2C(=O)[C@@H](NC(=O)[C@H](N)c3ccccc3)[C@H]2SC1 [cephalexin]
clinical response of facial rash (later diagnosed granulomatous rosacea) (Example 2, patient, oral cephalexin, one month later): worsening pustules and tender nodules

CC[C@H]1OC(=O)[C@H](C)[C@@H](O[C@H]2C[C@@](C)(OC)[C@@H](O)[C@H](C)O2)[C@H](C)[C@@H](O[C@@H]2O[C@H](C)C[C@H](N(C)C)[C@H]2O)[C@](C)(O)C[C@@H](C)CN(C)[C@H](C)[C@@H](O)[C@]1(C)O [azithromycin]
clinical response of granulomatous rosacea at follow-up (Example 1, azithromycin reduced to 500 mg every other day plus daily topical azaleic acid): remained clear | clinical response of granulomatous rosacea (Example 1, oral azithromycin 500 mg daily together with norgestimate/ethinyl estradiol, 9 weeks after initiation): greatly improved with only minimal residual facial erythema and no residual inflammatory lesions | clinical response of granulomatous rosacea at follow-up (Example 2, azithromycin decreased to 500 mg every other day, topicals continued): no evidence of residual rosacea | clinical response of granulomatous rosacea (Example 2, oral azithromycin 500 mg daily with topical sodium sulfacetamide 10%/sulfur 5% cream and metronidazole cream, six weeks after initiation): minimally perceptible residual erythema and papulation | clinical response of granulomatous rosacea (Example 3, azithromycin as sole therapy, orally 250 mg daily for three weeks): remarkable improvement | recurrence of granulomatous rosacea (Example 3, following cessation of azithromycin therapy (250 mg daily for three weeks)): has not had a recurrence | efficacy on signs and symptoms of granulomatous rosacea (general statement) (administered systemically for a period of several weeks or more): effective

Cc1onc(-c2c(Cl)cccc2Cl)c1C(=O)N[C@@H]1C(=O)N2[C@@H]1SC(C)(C)[C@@H]2C(=O)O [dicloxicillin]
clinical response of facial rash (later diagnosed granulomatous rosacea) (Example 2, dicloxicillin, six weeks later): persistent severe to worsening involvement

Source: US20070105788A1, “Azithromycin for treatment of granulomatous rosacea” (priority 2005, published 2007)
